# Test system: 945468-187-T-J2-PDC spheroids viability
# Experiment: Anticancer human tumor 945468-187-T-J2-PDC patient-derived rectal carcinoma cell line growth inhibition [PI3K]
# Conditions: spheroids with HUVEC and MSC; for IC50: curve of first compound; for viability, T/C: stronger effect = lower value
# Method in brief: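 Three cell types, namely tumor cells, endothelial cells and mesenchymal stem cells, formed each spheroid. Combinations with four PI3K inhibitors were screened at clinically achievable concentrations decreasing by half-log, and spheroid viability was recorded.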
# [1] = second compound 0.00316 µM, first compound 0.0316 µM
# [2] = second compound 0.00316 µM, first compound 0.1 µM
# [3] = second compound 0.00316 µM, first compound 0.316 µM
# [4] = second compound 0.00316 µM, first compound 1 µM
# [5] = second compound 0.00316 µM, first compound 3.16 µM
# [6] = second compound 0.00316 µM, first compound 10 µM
# [7] = second compound 0.01 µM, first compound 0.0316 µM
# [8] = second compound 0.01 µM, first compound 0.1 µM
# [9] = second compound 0.01 µM, first compound 0.316 µM
# [10] = second compound 0.01 µM, first compound 1 µM
# [11] = second compound 0.01 µM, first compound 3.16 µM
# [12] = second compound 0.01 µM, first compound 10 µM
# [13] = second compound 0.0316 µM, first compound 0.0316 µM
# [14] = second compound 0.0316 µM, first compound 0.1 µM
# [15] = second compound 0.0316 µM, first compound 0.316 µM
# [16] = second compound 0.0316 µM, first compound 1 µM
# [17] = second compound 0.0316 µM, first compound 3.16 µM
# [18] = second compound 0.0316 µM, first compound 10 µM
# [19] = second compound 0.1 µM, first compound 0.0316 µM
# [20] = second compound 0.1 µM, first compound 0.1 µM
# [21] = second compound 0.1 µM, first compound 0.316 µM
# [22] = second compound 0.1 µM, first compound 1 µM
# [23] = second compound 0.1 µM, first compound 3.16 µM
# [24] = second compound 0.1 µM, first compound 10 µM
# [25] = second compound 0.316 µM, first compound 0.0316 µM
# [26] = second compound 0.316 µM, first compound 0.1 µM
# [27] = second compound 0.316 µM, first compound 0.316 µM
# [28] = second compound 0.316 µM, first compound 1 µM
# [29] = second compound 0.316 µM, first compound 3.16 µM
# [30] = second compound 0.316 µM, first compound 10 µM
# [31] = second compound 1 µM, first compound 0.0316 µM
# [32] = second compound 1 µM, first compound 0.1 µM
# [33] = second compound 1 µM, first compound 0.316 µM
# [34] = second compound 1 µM, first compound 1 µM
# [35] = second compound 1 µM, first compound 3.16 µM
# [36] = second compound 1 µM, first compound 10 µM
# 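Also: spheroids exposed to compounds for seven days before reading.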
smiles,measurement,setting,value
C=CC(=O)N1CCN(c2nc(=O)n(-c3c(C)ccnc3C(C)C)c3nc(-c4c(O)cccc4F)c(F)cc23)C(C)C1 (stereo not drawn) + CC(Nc1ccc2c(c1)OCCn1cc(N3C(=O)OCC3C(F)F)nc1-2)C(N)=O,IC50,second compound 0.00316 µM,> 10 µM
same,IC50,second compound 0.01 µM,> 10 µM
same,IC50,second compound 0.0316 µM,> 10 µM
same,IC50,second compound 0.1 µM,> 10 µM
same,IC50,second compound 0.316 µM,> 10 µM
same,IC50,second compound 1 µM,> 10 µM
same,"viability, T/C",[1],117%
same,"viability, T/C",[2],108%
same,"viability, T/C",[3],114%
same,"viability, T/C",[4],85.1%
same,"viability, T/C",[5],101%
same,"viability, T/C",[6],101%
same,"viability, T/C",[7],166%
same,"viability, T/C",[8],98%
same,"viability, T/C",[9],101%
same,"viability, T/C",[10],120%
same,"viability, T/C",[11],111%
same,"viability, T/C",[12],123%
same,"viability, T/C",[13],124%
same,"viability, T/C",[14],117%
same,"viability, T/C",[15],103%
same,"viability, T/C",[16],116%
same,"viability, T/C",[17],91.5%
same,"viability, T/C",[18],83.6%
same,"viability, T/C",[19],127%
same,"viability, T/C",[20],88.1%
same,"viability, T/C",[21],87.7%
same,"viability, T/C",[22],98.4%
same,"viability, T/C",[23],96.3%
same,"viability, T/C",[24],111%
same,"viability, T/C",[25],101%
same,"viability, T/C",[26],101%
same,"viability, T/C",[27],79.7%
same,"viability, T/C",[28],110%
same,"viability, T/C",[29],95.3%
same,"viability, T/C",[30],80.1%
same,"viability, T/C",[31],89.2%
same,"viability, T/C",[32],98.1%
same,"viability, T/C",[33],81.8%
same,"viability, T/C",[34],83.4%
same,"viability, T/C",[35],81.9%
same,"viability, T/C",[36],83.7%
CCN1CCN(Cc2ccc(Nc3ncc(F)c(-c4cc(F)c5nc(C)n(C(C)C)c5c4)n3)nc2)CC1 + CC(Nc1ccc2c(c1)OCCn1cc(N3C(=O)OCC3C(F)F)nc1-2)C(N)=O,IC50,second compound 0.00316 µM,> 1 µM
same,IC50,second compound 0.01 µM,> 1 µM
same,IC50,second compound 0.0316 µM,> 1 µM
same,IC50,second compound 0.1 µM,> 1 µM
same,IC50,second compound 0.316 µM,0.712 µM
same,IC50,second compound 1 µM,0.332 µM
same,"viability, T/C","second compound 0.00316 µM, first compound 0.00316 µM",113%
same,"viability, T/C","second compound 0.00316 µM, first compound 0.01 µM",93.7%
same,"viability, T/C",[1],88.2%
same,"viability, T/C",[2],101%
same,"viability, T/C",[3],82.7%
same,"viability, T/C",[4],73.2%
same,"viability, T/C","second compound 0.01 µM, first compound 0.00316 µM",95.2%
same,"viability, T/C","second compound 0.01 µM, first compound 0.01 µM",96.7%
same,"viability, T/C",[7],90.9%
same,"viability, T/C",[8],102%
same,"viability, T/C",[9],143%
same,"viability, T/C",[10],71.3%
same,"viability, T/C","second compound 0.0316 µM, first compound 0.00316 µM",99%
same,"viability, T/C","second compound 0.0316 µM, first compound 0.01 µM",95.1%
same,"viability, T/C",[13],95.2%
same,"viability, T/C",[14],117%
same,"viability, T/C",[15],111%
same,"viability, T/C",[16],74.7%
same,"viability, T/C","second compound 0.1 µM, first compound 0.00316 µM",91.8%
same,"viability, T/C","second compound 0.1 µM, first compound 0.01 µM",91.3%
same,"viability, T/C",[19],94.3%
same,"viability, T/C",[20],79.3%
same,"viability, T/C",[21],94.1%
same,"viability, T/C",[22],59.1%
same,"viability, T/C","second compound 0.316 µM, first compound 0.00316 µM",78.2%
same,"viability, T/C","second compound 0.316 µM, first compound 0.01 µM",79.8%
same,"viability, T/C",[25],75.6%
same,"viability, T/C",[26],71.1%
same,"viability, T/C",[27],83.8%
same,"viability, T/C",[28],38.4%
same,"viability, T/C","second compound 1 µM, first compound 0.00316 µM",79.7%
same,"viability, T/C","second compound 1 µM, first compound 0.01 µM",67.2%
same,"viability, T/C",[31],83.4%
same,"viability, T/C",[32],82.4%
same,"viability, T/C",[33],51%
same,"viability, T/C",[34],28.2%
Cn1ncc(Cl)c1-c1cc(C(=O)NC(CN)Cc2cccc(F)c2)sc1Cl (stereo not drawn) + CC(Nc1ccc2c(c1)OCCn1cc(N3C(=O)OCC3C(F)F)nc1-2)C(N)=O,IC50,second compound 0.00316 µM,> 10 µM
same,IC50,second compound 0.01 µM,> 10 µM
same,IC50,second compound 0.0316 µM,> 10 µM
same,IC50,second compound 0.1 µM,> 10 µM
same,IC50,second compound 0.316 µM,> 10 µM
same,IC50,second compound 1 µM,> 10 µM
same,"viability, T/C",[1],82%
same,"viability, T/C",[2],76.6%
same,"viability, T/C",[3],66.5%
same,"viability, T/C",[4],70%
same,"viability, T/C",[5],58.5%
same,"viability, T/C",[6],73.8%
same,"viability, T/C",[7],80.1%
same,"viability, T/C",[8],75.4%
same,"viability, T/C",[9],95.7%
same,"viability, T/C",[10],75.8%
same,"viability, T/C",[11],66.7%
same,"viability, T/C",[12],95.7%
same,"viability, T/C",[13],99.8%
same,"viability, T/C",[14],88.3%
same,"viability, T/C",[15],95.9%
same,"viability, T/C",[16],71.6%
same,"viability, T/C",[17],62.3%
same,"viability, T/C",[18],96%
same,"viability, T/C",[19],93.2%
same,"viability, T/C",[20],86.1%
same,"viability, T/C",[21],78.4%
same,"viability, T/C",[22],71.8%
same,"viability, T/C",[23],62.2%
same,"viability, T/C",[24],81.5%
same,"viability, T/C",[25],70.6%
same,"viability, T/C",[26],79.5%
same,"viability, T/C",[27],77.1%
same,"viability, T/C",[28],83.9%
same,"viability, T/C",[29],63.6%
same,"viability, T/C",[30],65.4%
same,"viability, T/C",[31],70.3%
same,"viability, T/C",[32],56.6%
same,"viability, T/C",[33],68.5%
same,"viability, T/C",[34],74%
same,"viability, T/C",[35],39.6%
same,"viability, T/C",[36],66.4%
Cn1nccc1Nc1nccc(-c2ccn(C(CO)c3ccc(Cl)c(F)c3)c(=O)c2)n1 (stereo not drawn) + CC(Nc1ccc2c(c1)OCCn1cc(N3C(=O)OCC3C(F)F)nc1-2)C(N)=O,IC50,second compound 0.00316 µM,> 10 µM
same,IC50,second compound 0.01 µM,> 10 µM
same,IC50,second compound 0.0316 µM,> 10 µM
same,IC50,second compound 0.1 µM,> 10 µM
same,IC50,second compound 0.316 µM,> 10 µM
same,IC50,second compound 1 µM,> 10 µM
same,"viability, T/C",[1],92.2%
same,"viability, T/C",[2],114%
same,"viability, T/C",[3],88.5%
same,"viability, T/C",[4],102%
same,"viability, T/C",[5],90.7%
same,"viability, T/C",[6],79.9%
same,"viability, T/C",[7],124%
same,"viability, T/C",[8],109%
same,"viability, T/C",[9],101%
same,"viability, T/C",[10],89.1%
same,"viability, T/C",[11],91.9%
same,"viability, T/C",[12],74.8%
same,"viability, T/C",[13],118%
same,"viability, T/C",[14],102%
same,"viability, T/C",[15],92.6%
same,"viability, T/C",[16],80%
same,"viability, T/C",[17],83.6%
same,"viability, T/C",[18],77.6%
same,"viability, T/C",[19],113%
same,"viability, T/C",[20],90.6%
same,"viability, T/C",[21],124%
same,"viability, T/C",[22],111%
same,"viability, T/C",[23],101%
same,"viability, T/C",[24],73.9%
same,"viability, T/C",[25],74.3%
same,"viability, T/C",[26],105%
same,"viability, T/C",[27],86.5%
same,"viability, T/C",[28],83%
same,"viability, T/C",[29],85%
same,"viability, T/C",[30],81.7%
same,"viability, T/C",[31],79.2%
same,"viability, T/C",[32],72.4%
same,"viability, T/C",[33],84.3%
same,"viability, T/C",[34],89.1%
same,"viability, T/C",[35],75.5%
same,"viability, T/C",[36],83.5%
